The target in one data set is hERG channel (Homo sapiens (Human), UniProt Q12809). Kind of data set: hERG channel inhibition assay (patch-clamp, CHOhERG cells). Type of data set: cell-based. The conditions noted are these: for IC20: human, CHO cells stably expressing hERG. The protocol: The hERG K^+ channels were cloned in humans and stably expressed in a CHO (Chinese hamster ovary) cell line. CHOhERG cells were used for patch-clamp (voltage-clamp, whole-cell) experiments. Cells were stimulated by a voltage pattern to activate hERG channels and conduct IKhERG currents (rapid delayed outward rectifier potassium current of the hERG channel). […] Thereafter, the test compound was added to the preparation at increasing concentrations. For each concentration, an attempt was made to reach a steady-state effect, usually, this was achieved within 3-10 min at which time the next highest concentration was applied. The amplitude and kinetics of IKhERG are recorded in each concentration of the drug which were compared to the control values (taken as 100%). (references: Redfern W S, Carlsson L, Davis A S, Lynch W G, MacKenzie I, Palethorpe S, Siegl P K, Strang I, Sullivan A T, Wallis R, Camm A J, Hammond T G. 2003; Relationships between preclinical cardiac electrophysiology, clinical QT interval prolongation and torsade de pointes for a broad range of drugs: evidence for a provisional safety margin in drug development. Cardiovasc. Res. 58:32-45, Sanguinetti M C, Tristani-Firouzi M. 2006; hERG potassium channels and cardiac arrhythmia. Nature 440:463-469, Webster R, Leishman D, Walker D. 2002; Towards a drug concentration effect relationship for QT prolongation and torsades de pointes. Curr. Opin. Drug Discov. Devel. 5:116-26).
Sequence of hERG channel (Q12809 whole entry): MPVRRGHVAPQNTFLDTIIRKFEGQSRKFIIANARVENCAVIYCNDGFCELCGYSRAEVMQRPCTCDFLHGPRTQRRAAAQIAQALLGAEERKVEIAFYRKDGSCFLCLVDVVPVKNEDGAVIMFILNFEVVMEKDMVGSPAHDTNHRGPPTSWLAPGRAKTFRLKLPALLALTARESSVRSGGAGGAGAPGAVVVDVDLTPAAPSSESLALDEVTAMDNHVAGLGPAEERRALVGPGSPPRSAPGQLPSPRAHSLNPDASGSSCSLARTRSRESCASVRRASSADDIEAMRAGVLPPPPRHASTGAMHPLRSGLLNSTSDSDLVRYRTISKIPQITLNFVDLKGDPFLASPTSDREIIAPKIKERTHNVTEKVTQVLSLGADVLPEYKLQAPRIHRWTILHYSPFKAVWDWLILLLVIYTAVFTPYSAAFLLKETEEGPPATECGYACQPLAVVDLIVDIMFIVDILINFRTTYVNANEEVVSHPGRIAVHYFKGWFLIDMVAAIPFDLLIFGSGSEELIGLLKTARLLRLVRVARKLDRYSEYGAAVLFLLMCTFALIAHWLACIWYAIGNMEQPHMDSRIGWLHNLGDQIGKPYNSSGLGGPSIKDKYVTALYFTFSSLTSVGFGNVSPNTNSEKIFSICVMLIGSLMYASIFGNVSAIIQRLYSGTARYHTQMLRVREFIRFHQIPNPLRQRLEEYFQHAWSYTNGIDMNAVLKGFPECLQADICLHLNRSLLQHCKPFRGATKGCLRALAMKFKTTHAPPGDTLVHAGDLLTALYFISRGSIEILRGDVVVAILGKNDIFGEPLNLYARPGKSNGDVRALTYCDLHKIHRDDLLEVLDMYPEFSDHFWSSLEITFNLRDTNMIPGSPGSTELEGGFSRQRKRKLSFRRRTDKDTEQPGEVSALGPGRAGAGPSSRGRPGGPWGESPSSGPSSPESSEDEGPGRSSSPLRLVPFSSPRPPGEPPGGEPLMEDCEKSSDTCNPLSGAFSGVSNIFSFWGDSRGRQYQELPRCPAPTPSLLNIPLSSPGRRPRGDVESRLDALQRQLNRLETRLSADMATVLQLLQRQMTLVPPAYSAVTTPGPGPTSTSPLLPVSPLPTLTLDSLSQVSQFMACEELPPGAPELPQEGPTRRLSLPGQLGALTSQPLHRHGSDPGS
For orientation: Block of hERG is tested as a sign of cardiac risk.

The nature of data set [1]: Single dose PK after 1 mg/kg intravenous dosing to rat. It counts as in vivo, Male Wister-Han Rats. The conditions noted are these: IV 1 mpk. The protocol: The single dose PK in Male Wister-Han Rats was performed to assess pharmacokinetic properties of tested compounds. Two groups of animals were dosed via bolus intravenous (IV) of the respective compound. Blood samples (approximately 20 μL) were collected via Jugular vein or an alternate site at 5 min, 15 min, 30 min, 1 hr, 2 hr, 4 hr, 7 hr and 24 hr post-dose for IV group. Blood samples were placed into tubes containing EDTA-K2 anticoagulant and centrifuged at 5000 rpm for 6 min at 4° C. to separate plasma from the samples. Following centrifugation, the resulting plasma was transferred to clean tubes for bioanalysis on LC/MS/MS. The pharmacokinetic parameters were calculated using non-compartmental module of WinNonlin® Professional 6.2. […] Therefore, compounds of present invention potentially could lead to less dose frequency and lower dose in clinical application.

The target of a further data set is human TLR7 (Homo sapiens (Human), UniProt Q9NYK1). Kind of data set: HEK-Blue-hTLR7 cells assay (SEAP reporter). It counts as cell-based. The note with it: 20 hrs. The protocol:
A stable HEK-Blue-hTLR7 cell line was purchased from InvivoGen (Cat. #: hkb-htlr7, San Diego, Calif., USA). These cells were designed for studying the stimulation of human TLR7 by monitoring the activation of NF-κB. […] Therefore the reporter expression was regulated by the NF-κB promoter upon stimulation of human TLR7 for 20 hrs. The cell culture supernatant SEAP reporter activity was determined using QUANTI-Blue™ kit (Cat. #: rep-qbl, Invivogen, San Diego, Ca, USA) at a wavelength of 640 nm, a detection medium that turns purple or blue in the presence of alkaline phosphatase.
HEK-Blue-hTLR7 cells were incubated at a density of 250,000-450,000 cells/mL in a volume of 180 μL in a 96-well plate in Dulbecco's Modified Eagle's medium (DMEM) containing 4.5 g/L glucose, 50 U/mL penicillin, […], […], 2 mM L-glutamine, 10% (V/V) heat-inactivated fetal bovine serum for 24 hrs. Then the HEK-Blue-hTLR-7 cells were incubated with addition of 20 μL test compound in a serial dilution in the presence of final DMSO at 1% and perform incubation under 37° C. in a CO2 incubator for 20 hrs. Then 20 μL of the supernatant from each well was incubated with […] Quanti-blue substrate solution at 37° C. for 2 hrs and the absorbance was read at 620-655 nm using a spectrophotometer. The signalling pathway that TLR7 activation leads to downstream NF-κB activation has been widely accepted, and therefore similar reporter assay was also widely used for evaluating TLR7 agonist (Tsuneyasu Kaisho and Takashi Tanaka, Trends in Immunology, Volume 29, Issue 7, July 2008, […]; Hiroaki Hemmi et al, Nature Immunology 3, 196-200 (2002)).

The next data set relates to CYP3A4. Kind of data set: Cytochrome P450 induction screening assay, mRNA induction in human cryopreserved hepatocytes. Type of data set: in vitro ADME. The conditions noted are these: 24 hours. The text has this: Induction of cytochrome P450 enzymes is associated with an increased prevalence of clinical drug-drug interactions. The clinical consequences of induction may be therapeutic failure caused by a decreased systemic exposure of the drug itself or a co-administered therapy, or toxicity as a result of increased bioactivation. Cytochrome P450 (CYP450) induction assay has been used to understand the potential drug-drug interaction liabilities in drug discovery stage. Human cryopreserved hepatocytes (Life Technologies, Carlsbad, USA) were thawed and cultured in collagen I coated 96-well plates with a density of 52,000 cells/well. After attachment, hepatocyte maintenance medium (HMM; Lonza, Switzerland) was changed after cells were pre-cultured overnight. […] Medium change was then performed and cells were exposed for 24 hours to test compounds, positive inducer compounds, or vehicle (0.1% DMSO), respectively. At the end of the compound exposure period, medium was removed and cells lysed using 100 μL/well MagNA Pure LC RNA isolation tissue lysis buffer (Roche Diagnostics AG, Rotkreuz, Switzerland). […] mRNA isolation was performed using the MagNA Pure 96 system (Roche Diagnostics AG, Rotkreuz, Switzerland) and the respective cellular RNA large volume kit (Roche Diagnostics AG, Rotkreuz, Switzerland) from thawed samples diluted 1:1 with PBS. […] The resulting cDNA was diluted with 40 μL of H2O before using for qRT-PCR. qRT-PCR was performed by using the forward and the reverse primer, the corresponding Universal Probe Library (all from Microsynth, Balgach, Switzerland) and the Taqman Fast advanced master mix (Applied Biosystems), on an ABI 7900 machine (Applied Biosystems). qRT-PCR Ct-values for the respective P450s were put into relation to the Ct-value of RN18S1 (microsynth, Balgach, Switzerland) of the same sample. Doing so, a respective Δct-value was calculated. Using the average of all Δct-values for the vehicle control samples, a ΔΔct-value was calculated for each sample (ΔΔct-value(sample)=Δct-value(sample)−average of Δct-value of all vehicle controls). […] The individual fold induction values were then averaged per treatment condition (usually n=3 biological replicates). […] Relative induction (%)=100×(T−V)/(P−V) • T: fold induction of test compound condition • P: fold induction of positive inducer compound • V: fold induction of vehicle controls Results of CYP3A4 induction are given in Table 5.

The target of another data set is human TLR8 (Homo sapiens (Human), UniProt Q9NR97). The data set is described as follows: HEK-Blue-hTLR8 cells assay (SEAP reporter) and selectivity index. It counts as cell-based. The note with it: 20 hrs, read-out: HEK Blue hTLR-8 EC50. The method, then: These cells were designed for studying the stimulation of human TLR8 by monitoring the activation of NF-κB. […] Therefore the reporter expression was regulated by the NF-κB promoter upon stimulation of human TLR8 for 20 hrs.
Sequence of human TLR8 (Q9NR97 27-1041): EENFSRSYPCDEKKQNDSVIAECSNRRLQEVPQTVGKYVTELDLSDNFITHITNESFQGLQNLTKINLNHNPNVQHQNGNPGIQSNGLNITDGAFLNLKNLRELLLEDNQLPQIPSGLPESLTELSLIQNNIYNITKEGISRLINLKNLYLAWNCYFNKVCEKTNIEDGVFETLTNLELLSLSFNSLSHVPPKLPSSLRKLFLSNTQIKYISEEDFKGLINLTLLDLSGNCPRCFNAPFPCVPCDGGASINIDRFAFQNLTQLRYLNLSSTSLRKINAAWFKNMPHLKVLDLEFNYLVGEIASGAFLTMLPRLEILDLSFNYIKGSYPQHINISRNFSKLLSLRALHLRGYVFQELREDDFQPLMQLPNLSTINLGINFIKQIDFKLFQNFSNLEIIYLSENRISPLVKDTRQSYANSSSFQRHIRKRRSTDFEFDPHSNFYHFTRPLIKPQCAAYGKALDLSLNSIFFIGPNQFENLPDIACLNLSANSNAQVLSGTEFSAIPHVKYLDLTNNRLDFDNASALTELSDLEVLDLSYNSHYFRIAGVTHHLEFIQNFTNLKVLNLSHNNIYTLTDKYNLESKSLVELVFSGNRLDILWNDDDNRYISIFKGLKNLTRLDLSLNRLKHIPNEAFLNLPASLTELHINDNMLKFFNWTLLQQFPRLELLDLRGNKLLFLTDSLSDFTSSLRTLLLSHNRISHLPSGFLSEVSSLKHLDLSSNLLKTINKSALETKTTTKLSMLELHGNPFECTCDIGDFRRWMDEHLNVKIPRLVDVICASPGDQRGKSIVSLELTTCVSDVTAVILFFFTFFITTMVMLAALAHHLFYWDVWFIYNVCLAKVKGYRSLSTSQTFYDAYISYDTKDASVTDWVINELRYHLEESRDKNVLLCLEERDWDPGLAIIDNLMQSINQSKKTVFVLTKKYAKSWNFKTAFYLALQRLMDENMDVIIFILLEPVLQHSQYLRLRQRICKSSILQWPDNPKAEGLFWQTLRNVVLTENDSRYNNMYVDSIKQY
Then the HEK-Blue-hTLR8 cells were incubated with addition of 20 μL test compound in a serial dilution in the presence of final DMSO at 1% and perform incubation under 37° C. in a CO2 incubator for 20 hrs. […] The signalling pathway that TLR8 activation leads to downstream NF-κB activation has been widely accepted, and therefore similar reporter assay was also widely used for evaluating TLR8 agonist (Tsuneyasu Kaisho and Takashi Tanaka, Trends in Immunology, Volume 29, Issue 7, July 2008, […]; Hiroaki Hemmi et al, Nature Immunology 3, 196-200 (2002)).

Data set [2] relates to patients with chronic hepatitis B. The note with it: phase Ib; cited from earlier work.
For data set [3] the following is noted: rat, IV 1 mpk; data from WO2016023511; cited from earlier work.
[4] abbreviates: male, Wister-Han, plasma, iv, 1 mg/kg.
Where [5] appears, read: read-out: HEK-Blue-hTLR7 (EC50 (μM)).

Where two headings read alike, the source gives them in different places. Where only a bound is given, the exact number is not on record here.

Data on 12 molecules can be found in US11242345B2, “Sulfonimidoylpurinone compounds and methods of treatment using the same” (Hoffmann-La Roche Inc., priority 2015, dated 2022).

Sequence of human TLR7 (Q9NYK1 27-1049): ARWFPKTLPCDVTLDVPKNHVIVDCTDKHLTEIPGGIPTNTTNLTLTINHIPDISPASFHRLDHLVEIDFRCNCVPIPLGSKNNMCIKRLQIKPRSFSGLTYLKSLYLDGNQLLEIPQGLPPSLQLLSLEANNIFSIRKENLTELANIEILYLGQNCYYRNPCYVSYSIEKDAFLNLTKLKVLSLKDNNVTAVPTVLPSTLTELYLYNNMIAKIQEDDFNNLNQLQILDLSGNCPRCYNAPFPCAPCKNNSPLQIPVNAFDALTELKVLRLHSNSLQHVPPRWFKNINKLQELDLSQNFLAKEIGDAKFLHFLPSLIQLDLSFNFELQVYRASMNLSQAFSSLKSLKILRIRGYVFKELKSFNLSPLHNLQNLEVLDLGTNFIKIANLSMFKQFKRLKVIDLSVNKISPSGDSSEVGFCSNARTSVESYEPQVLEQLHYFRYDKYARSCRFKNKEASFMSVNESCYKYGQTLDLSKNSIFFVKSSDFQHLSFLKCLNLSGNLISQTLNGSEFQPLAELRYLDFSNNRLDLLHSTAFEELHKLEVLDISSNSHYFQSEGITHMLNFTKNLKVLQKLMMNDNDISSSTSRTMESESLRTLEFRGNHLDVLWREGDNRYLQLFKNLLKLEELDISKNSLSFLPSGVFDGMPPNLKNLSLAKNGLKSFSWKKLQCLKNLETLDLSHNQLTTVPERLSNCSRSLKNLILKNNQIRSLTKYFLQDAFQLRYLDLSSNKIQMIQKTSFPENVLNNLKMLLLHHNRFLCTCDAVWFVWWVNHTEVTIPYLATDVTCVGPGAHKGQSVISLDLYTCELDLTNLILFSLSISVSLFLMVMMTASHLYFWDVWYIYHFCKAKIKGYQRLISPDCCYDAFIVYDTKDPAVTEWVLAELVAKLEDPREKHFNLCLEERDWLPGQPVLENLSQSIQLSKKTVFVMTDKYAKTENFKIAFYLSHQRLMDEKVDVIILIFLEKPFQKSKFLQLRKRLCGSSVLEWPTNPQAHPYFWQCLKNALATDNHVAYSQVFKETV

Regarding `CCS(=N)(=O)c1nc(N)c2[nH]c(=O)n(Cc3ccc(C)cc3)c2n1` (single isomer, unassigned) [Example 71-A, 6-Amino-2-(ethylsulfonimidoyl)-9-(p-tolylmethyl)-7H-purin-8-one], on hERG channel, the IC50 is > 20 µM and the IC20 is > 10 µM. In data set [1] (setting [4]), the AUC(0-inf) is 1.18 µM·h, the C0 turned out to be 1850 nM and the clearance was 84.6 mL/min/kg. The EC50 on human TLR7 (setting [5]) was 0.134 µM. The “Relative induction of Positive control (10 μM Rifampicin) (%)” value (from here on “Relative induction … (%)”) in the data set with CYP3A4 was −0.10%.

For the molecule `CCS(=N)(=O)c1nc(N)c2[nH]c(=O)n(Cc3ccc(Cl)cc3)c2n1` (single isomer, unassigned) [Example 70-A, 6-Amino-9-[(4-chlorophenyl)methyl]-2-(ethylsulfonimidoyl)-7H-purin-8-one], in data set [1] (setting [4]), the AUC(0-inf) was 1.63 µM·h, the C0 is 3050 nM and the clearance was 56 mL/min/kg. In addition, the EC50 on human TLR8 was > 1 mM. Also, the EC50 on human TLR7 (setting [5]) turned out to be 0.054 µM. Moreover, the “Relative induction … (%)” value in the data set on CYP3A4 was 0.42%.

For `CCCS(=N)(=O)c1nc(N)c2[nH]c(=O)n(Cc3ccc(C)cc3)c2n1` (single isomer, unassigned) [Example 29-B, 6-Amino-2-(propylsulfonimidoyl)-9-(p-tolylmethyl)-7H-purin-8-one], the IC50 at hERG channel was > 20 µM. This molecule had an EC50 at human TLR7 (HEK-Blue-hTLR7 (EC50 (μM))) of 0.022 µM.

For `CCCS(=N)(=O)c1nc(N)c2[nH]c(=O)n(Cc3ccc(F)cc3)c2n1` (stereo not drawn) [Example 24, 6-Amino-9-[(4-fluorophenyl)methyl]-2-(propylsulfonimidoyl)-7H-purin-8-one], the “Relative induction … (%)” value with CYP3A4 is reported as −0.72%.

As to `CCCCOc1nc(N)c2c(n1)N(Cc1cccc(CN3CCCC3)c1)CC(=O)N2` [GS-9620], in data set [2], the “ISG15 mRNA induction” value is given as “dose-dependent ISG15 mRNA induction”; the Safety and tolerability entry is listed as “safe, well tolerated”. In addition, in data set [3], the C0 is 220 nM.

With `CCS(=N)(=O)c1nc(N)c2[nH]c(=O)n(Cc3ccc(C)cc3)c2n1` (single isomer, unassigned) [Example 71-B, 6-Amino-2-(ethylsulfonimidoyl)-9-(p-tolylmethyl)-7H-purin-8-one], the half-maximal effective concentration (EC50) at human TLR7 (setting [5]) was found to be 0.087 µM.

Take `CCCS(=N)(=O)c1nc(N)c2[nH]c(=O)n(Cc3ccccc3)c2n1` (single isomer, unassigned) [Example 4-A, 6-Amino-9-benzyl-2-(propylsulfonimidoyl)-7H-purin-8-one]: in the data set with CYP3A4, the “Relative induction … (%)” value is reported as −0.63%.

Consider `CS(=N)(=O)c1nc(N)c2[nH]c(=O)n(Cc3ccccc3)c2n1` (single isomer, unassigned) [Example 1-B, 6-Amino-9-benzyl-2-(methylsulfonimidoyl)-7H-purin-8-one], for which, on hERG channel, the concentration for half-maximal inhibition (IC50) is > 20 µM and the IC20 is > 10 µM. Moreover, at human TLR7 (setting [5]), the concentration for a half-maximal effect (EC50) was 0.18 µM.

Consider `CCCS(=N)(=O)c1nc(N)c2[nH]c(=O)n(Cc3ccc(C)cc3)c2n1` (single isomer, unassigned) [Example 29-A, 6-Amino-2-(propylsulfonimidoyl)-9-(p-tolylmethyl)-7H-purin-8-one], for which, at hERG channel, the 50% inhibitory concentration (IC50) is > 20 µM and the 20% effect concentration (IC20) was > 10 µM. The response at human TLR7 (HEK-Blue-hTLR7 (EC50 (μM))) was half-maximal at 0.019 µM (EC50).

Regarding `CCCS(=N)(=O)c1nc(N)c2[nH]c(=O)n(Cc3ccccc3)c2n1` (single isomer, unassigned) [Example 4-B, 6-Amino-9-benzyl-2-(propylsulfonimidoyl)-7H-purin-8-one], it took 0.086 µM to reach a half-maximal effect on human TLR7 (HEK-Blue-hTLR7 (EC50 (μM))) (EC50). The “Relative induction … (%)” value in the data set on CYP3A4 is given as −0.90%.

For the molecule `CS(=O)(=O)c1nc(N)c2[nH]c(=O)n(Cc3ccccc3)c2n1` [Example S-1, reference compound], the C0 in data set [1] stood at 534 nM.

Take `CCS(=N)(=O)c1nc(N)c2[nH]c(=O)n(Cc3ccc(Cl)cc3)c2n1` (single isomer, unassigned) [Example 70-B, 6-Amino-9-[(4-chlorophenyl)methyl]-2-(ethylsulfonimidoyl)-7H-purin-8-one]: the C0 in data set [1] worked out at 2780 nM. Moreover, the EC50 on human TLR7 (setting [5]) worked out at 0.077 µM. For the same molecule, the “Relative induction … (%)” value in the data set with CYP3A4 is −0.42%.

As a reminder, the IC50 is the concentration needed to halve the response being measured. Higher therefore signals weaker potency. As usually defined, the IC20 is the point of the concentration-response curve where the effect stands at 20%. The low end stands for greater potency, the high end for weaker potency. As usually defined, the AUC(0-inf) is the area under the concentration-time curve extrapolated to infinity. The low end stands for less exposure, the high end for more exposure. What is called clearance is the rate of elimination divided by the concentration. Low readings indicate a low capacity for elimination, high ones a high capacity for elimination. One may read the EC50 as the concentration that produces a half-maximal response.
